Assays:
[1] = tested on: ABUTH (Abutilon theophrasti); test: Postemergence herbicidal evaluation; type: in vivo, Medic.
In short: (§1)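 Visual 0–9 injury scores versus control plants, covering stand, vigour, malformation, size, chlorosis and general appearance, taken four to five weeks post-spray and averaged over replicate tests. Plants were sprayed at roughly two weeks old and held on greenhouse benches.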

[2] = tested on: AMBEL (Ambrosia artemisifolia); test: Postemergence herbicidal evaluation; type: in vivo, L.
In short: as §1

[3] = tested on: CASOB (Cassia obtusifolia); test: Postemergence herbicidal evaluation; type: in vivo, L.
In short: as §1

[4] = tested on: CHEAL (Chenopodium album); test: Postemergence herbicidal evaluation; type: in vivo, L.
In short: as §1

GALAP (Galium aparine) [5] = test: Postemergence herbicidal evaluation; type: in vivo
In short: as §1

[6] = tested on: ECHCG (Echinochloa crus-galli); test: Postemergence herbicidal evaluation; type: in vivo, (L.) Beau
In short: as §1

[7] = tested on: GLXMAW (Soybean, Williams); test: Postemergence herbicidal evaluation; type: in vivo, Glycine max, (L.) Merr. cv Williams
In short: as §1

ORYSAT (Rice, Tebonnet) [8] = test: Postemergence herbicidal evaluation; type: in vivo, Oryza sativa, (L.) Tebonnet
In short: as §1

ZEAMX (Corn, Field) = test: Postemergence herbicidal evaluation; type: in vivo, Zea mays, L.
In short: as §1

[9] = tested on: ABUTH (Abutilon theophrasti); test: Preemergence herbicidal evaluation; type: in vivo, Medic.; conditions: preemergence, rated 4-5 weeks after treatment
[10] = tested on: AMBEL (Ambrosia artemisifolia); test: Preemergence herbicidal evaluation; type: in vivo, L.; conditions: preemergence, rated 4-5 weeks after treatment
In short: (§2)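 Visual 0-9 rating versus untreated control, taken four to five weeks post-treatment, scoring stand, vigor, malformation, size, chlorosis and overall appearance. Compound applied as aqueous acetone spray to freshly seeded soil cups, then kept under standard greenhouse care.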

[11] = tested on: CASOB (Cassia obtusifolia); test: Preemergence herbicidal evaluation; type: in vivo, L.; conditions: preemergence, rated 4-5 weeks after treatment
In short: as §2

[12] = tested on: CHEAL (Chenopodium album); test: Preemergence herbicidal evaluation; type: in vivo, L.; conditions: preemergence, rated 4-5 weeks after treatment
In short: as §2

GALAP (Galium aparine) [13] = test: Preemergence herbicidal evaluation; type: in vivo; conditions: preemergence, rated 4-5 weeks after treatment
In short: as §2

[14] = tested on: IPOHE (Ipomoea hederacea); test: Preemergence herbicidal evaluation; type: in vivo, (L.) Jacq.; conditions: preemergence, rated 4-5 weeks after treatment
ORYSAT (Rice, Tebonnet) [15] = test: Preemergence herbicidal evaluation; type: in vivo, Oryza sativa, (L.) Tebonnet; conditions: preemergence, rated 4-5 weeks after treatment
[16] = tested on: TRZAWR (Wheat, Winter, cv Riband); test: Preemergence herbicidal evaluation; type: in vivo, Triticum aestivum; conditions: preemergence, rated 4-5 weeks after treatment
In short: as §2

[17] = tested on: CYPSE (Cyperus serotinus); test: Flooded paddy, preemergence weed control; type: in vivo, Rottb.; conditions: rated 3-4 weeks after treatment, 0-9 rating scale
In short: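 Herbicidal effect was scored visually on a 0–9 scale against an untreated control 3–4 weeks after treatment. Compounds were applied preemergence as 50/50 v/v aqueous/acetone mixtures into flood water (1.5–3 cm deep over silt loam), at roughly 0.0080 to 0.1250 kg/ha active ingredient.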

[18] = tested on: SAGPY (Sagittaria pygmaea); test: Flooded paddy, preemergence weed control; type: in vivo, L.; conditions: rated 3-4 weeks after treatment, 0-9 rating scale
In short: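 Silt loam, sowing depth ≤0.5 cm; permanent flood 1.5–3 cm above soil; greenhouse culture after treatment. Readout: 0-9 visual scale (stand, vigor, malformation, size, chlorosis, appearance) vs control.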

ORYSAT (Rice, Tebonnet) [19] = test: Flooded paddy, post-transplant rice tolerance; type: in vivo, Oryza sativa, (L.) Tebonnet; conditions: flooded paddy, post-transplant rice, rated 3-4 weeks after treatment, 0-9 rating scale
In short: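 Seedlings aged ten days are transplanted in pairs into undrained pots of silt loam, which are then flooded to a depth of 1.5 to 3 cm. After herbicide application the pots are kept in a greenhouse with the flood maintained. Plants are rated 0-9 by visual comparison with controls.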

**Q.** With `COC(=O)COc1ccsc1-c1nsc2ccc(-n3c(=O)cc(C(F)(F)F)n(C)c3=O)cc12` [Compound 22, Methyl [(2-[5-[3,6-dihydro-3-methyl-2,6-dioxo-4-(trifluoromethyl)-1(2H)-pyrimidinyl]-1,2-benzisothiazol-3-yl]-3-thienyl]oxy]acetate] as the molecule, how does the “Postemergence herbicidal rating, ABUTH” value ([1]; rate 0.0320 kg/ha) read?
**A.** 5.0

**Q.** And the “Postemergence herbicidal rating, ABUTH” value ([1]; rate 0.0620 kg/ha)?
**A.** 4.0

**Q.** What about the “Postemergence herbicidal rating, ABUTH” value ([1]; rate 0.1250 kg/ha) of the same molecule?
**A.** 6.0

**Q.** What about the “Postemergence herbicidal rating, AMBEL” value ([2]; rate 0.0320 kg/ha) of the same molecule?
**A.** 2.0

**Q.** What about the “Postemergence herbicidal rating, AMBEL” value ([2]; rate 0.0620 kg/ha) of the same molecule?
**A.** 4.0

**Q.** What about the “Postemergence herbicidal rating, AMBEL” value ([2]; rate 0.1250 kg/ha) of the same molecule?
**A.** 6.0

**Q.** And the “Postemergence herbicidal rating, CASOB” value ([3]; rate 0.0320 kg/ha)?
**A.** 0.0

**Q.** And the “Postemergence herbicidal rating, CASOB” value ([3]; rate 0.0620 kg/ha)?
**A.** 0.0

**Q.** What about the “Postemergence herbicidal rating, CASOB” value ([3]; rate 0.1250 kg/ha) of the same molecule?
**A.** 1.0

**Q.** What about the “Postemergence herbicidal rating, CHEAL” value ([4]; rate 0.0320 kg/ha) of the same molecule?
**A.** 1.0

**Q.** And the “Postemergence herbicidal rating, CHEAL” value ([4]; rate 0.0620 kg/ha)?
**A.** 4.0

**Q.** And the “Postemergence herbicidal rating, CHEAL” value ([4]; rate 0.1250 kg/ha)?
**A.** 4.0

**Q.** And the “Postemergence herbicidal rating, GALAP” value (GALAP (Galium aparine) [5]; rate 0.0320 kg/ha)?
**A.** 0.0

**Q.** And the “Postemergence herbicidal rating, GALAP” value (GALAP (Galium aparine) [5]; rate 0.0620 kg/ha)?
**A.** 0.0

**Q.** And the “Postemergence herbicidal rating, GALAP” value (GALAP (Galium aparine) [5]; rate 0.1250 kg/ha)?
**A.** 1.0

**Q.** And the “Postemergence herbicidal rating, ECHCG” value ([6]; rate 0.0320 kg/ha)?
**A.** 0.0

**Q.** And the “Postemergence herbicidal rating, ECHCG” value ([6]; rate 0.0620 kg/ha)?
**A.** 2.0

**Q.** What about the “Postemergence herbicidal rating, ECHCG” value ([6]; rate 0.1250 kg/ha) of the same molecule?
**A.** 6.0

**Q.** And the “Postemergence herbicidal rating, GLXMAW” value ([7]; rate 0.0320 kg/ha)?
**A.** 5.5

**Q.** And the “Postemergence herbicidal rating, GLXMAW” value ([7]; rate 0.0620 kg/ha)?
**A.** 5.5

**Q.** What about the “Postemergence herbicidal rating, GLXMAW” value ([7]; rate 0.1250 kg/ha) of the same molecule?
**A.** 6.5

**Q.** And the “Postemergence herbicidal rating, ORYSAT” value (ORYSAT (Rice, Tebonnet) [8]; rate 0.0320 kg/ha)?
**A.** 3.0

**Q.** What about the “Postemergence herbicidal rating, ORYSAT” value (ORYSAT (Rice, Tebonnet) [8]; rate 0.0620 kg/ha) of the same molecule?
**A.** 3.5

**Q.** What about the “Postemergence herbicidal rating, ORYSAT” value (ORYSAT (Rice, Tebonnet) [8]; rate 0.1250 kg/ha) of the same molecule?
**A.** 4.5

**Q.** What about the “Postemergence herbicidal rating, ZEAMX” value (ZEAMX (Corn, Field); rate 0.0320 kg/ha) of the same molecule?
**A.** 4.5

**Q.** What about the “Postemergence herbicidal rating, ZEAMX” value (ZEAMX (Corn, Field); rate 0.0620 kg/ha) of the same molecule?
**A.** 6.0

**Q.** And the “Postemergence herbicidal rating, ZEAMX” value (ZEAMX (Corn, Field); rate 0.1250 kg/ha)?
**A.** 7.0

**Q.** And the “ABUTH preemergence herbicidal rating” value ([9]; Rate 0.0620 kg/ha)?
**A.** 1.0

**Q.** And the “ABUTH preemergence herbicidal rating” value ([9]; Rate 0.1250 kg/ha)?
**A.** 4.0

**Q.** And the “ABUTH preemergence herbicidal rating” value ([9]; Rate 0.2500 kg/ha)?
**A.** 5.0

**Q.** And the “AMBEL preemergence herbicidal rating” value ([10]; Rate 0.0620 kg/ha)?
**A.** 0.0

**Q.** And the “AMBEL preemergence herbicidal rating” value ([10]; Rate 0.1250 kg/ha)?
**A.** 0.0

**Q.** What about the “AMBEL preemergence herbicidal rating” value ([10]; Rate 0.2500 kg/ha) of the same molecule?
**A.** 2.0

**Q.** What about the “CASOB preemergence herbicidal rating” value ([11]; Rate 0.0620 kg/ha) of the same molecule?
**A.** 0.0

**Q.** What about the “CASOB preemergence herbicidal rating” value ([11]; Rate 0.1250 kg/ha) of the same molecule?
**A.** 0.0

**Q.** And the “CASOB preemergence herbicidal rating” value ([11]; Rate 0.2500 kg/ha)?
**A.** 1.0

**Q.** What about the “CHEAL preemergence herbicidal rating” value ([12]; Rate 0.0620 kg/ha) of the same molecule?
**A.** 0.0

**Q.** And the “CHEAL preemergence herbicidal rating” value ([12]; Rate 0.1250 kg/ha)?
**A.** 3.0

**Q.** What about the “CHEAL preemergence herbicidal rating” value ([12]; Rate 0.2500 kg/ha) of the same molecule?
**A.** 9.0

**Q.** What about the “GALAP preemergence herbicidal rating” value (GALAP (Galium aparine) [13]; Rate 0.0620 kg/ha) of the same molecule?
**A.** 0.0

**Q.** And the “GALAP preemergence herbicidal rating” value (GALAP (Galium aparine) [13]; Rate 0.1250 kg/ha)?
**A.** 0.0

**Q.** And the “GALAP preemergence herbicidal rating” value (GALAP (Galium aparine) [13]; Rate 0.2500 kg/ha)?
**A.** 1.0

**Q.** What about the “IPOHE preemergence herbicidal rating” value ([14]; Rate 0.0620 kg/ha) of the same molecule?
**A.** 0.0

**Q.** What about the “IPOHE preemergence herbicidal rating” value ([14]; Rate 0.1250 kg/ha) of the same molecule?
**A.** 0.0

**Q.** And the “IPOHE preemergence herbicidal rating” value ([14]; Rate 0.2500 kg/ha)?
**A.** 0.0

**Q.** And the “ORYSAT preemergence herbicidal rating” value (ORYSAT (Rice, Tebonnet) [15]; Rate 0.0620 kg/ha)?
**A.** 0.0

**Q.** What about the “ORYSAT preemergence herbicidal rating” value (ORYSAT (Rice, Tebonnet) [15]; Rate 0.1250 kg/ha) of the same molecule?
**A.** 0.0

**Q.** And the “ORYSAT preemergence herbicidal rating” value (ORYSAT (Rice, Tebonnet) [15]; Rate 0.2500 kg/ha)?
**A.** 0.0

**Q.** What about the “TRZAWR preemergence herbicidal rating” value ([16]; Rate 0.0620 kg/ha) of the same molecule?
**A.** 0.0

**Q.** What about the “TRZAWR preemergence herbicidal rating” value ([16]; Rate 0.1250 kg/ha) of the same molecule?
**A.** 0.0

**Q.** What about the “TRZAWR preemergence herbicidal rating” value ([16]; Rate 0.2500 kg/ha) of the same molecule?
**A.** 0.0

**Q.** What about the “herbicidal rating, CYPSE” value ([17]; rate 0.0320 kg/ha) of the same molecule?
**A.** 0.0

**Q.** What about the “herbicidal rating, CYPSE” value ([17]; rate 0.1250 kg/ha) of the same molecule?
**A.** 0.0

**Q.** And the “herbicidal rating, SAGPY” value ([18]; rate 0.0080 kg/ha)?
**A.** 0.0

**Q.** What about the “herbicidal rating, SAGPY” value ([18]; rate 0.0320 kg/ha) of the same molecule?
**A.** 0.0

**Q.** What about the “herbicidal rating, SAGPY” value ([18]; rate 0.1250 kg/ha) of the same molecule?
**A.** 0.0

**Q.** And the “herbicidal rating, ORYSAT (rice tolerance)” value (ORYSAT (Rice, Tebonnet) [19]; rate 0.0080 kg/ha)?
**A.** 0.0

**Q.** What about the “herbicidal rating, ORYSAT (rice tolerance)” value (ORYSAT (Rice, Tebonnet) [19]; rate 0.0320 kg/ha) of the same molecule?
**A.** 2.0

**Q.** What about the “herbicidal rating, ORYSAT (rice tolerance)” value (ORYSAT (Rice, Tebonnet) [19]; rate 0.1250 kg/ha) of the same molecule?
**A.** 2.5
